The source of these data is article PMC3930474 (Journal of controlled release : official journal of the …, 2013).

For series [1], the system named is 4T1 tumors. Nature of the series: Evans Blue assay. In kind it is in vivo, mouse. The conditions noted are these: mice.
Series [2] has as its system 4T1 tumors. Nature of the series: Tumor homing / tumor extravasation of FAM-labeled peptides and conjugates. The format is in vivo, mouse. The conditions noted are these: FAM-labeled peptide i.v., three hours after the injection.
The conditions of series [3]: mouse, in vivo, iv.

In the case of CRGDK/RGPD/EC (disulfide) [iRGD], the “duration of the bystander effect after a bolus injection” value in the series on 4T1 tumors [1] is given as “less than one hour”. Also, the “peptide signal in the tumors” value in the series on 4T1 tumors [2] was “had weakened”. Further, in series [3], the plasma half-life was 8 min.
